Experimental data taken from patent publication US20260256859A1, “COMPOSITION FOR PREVENTING, AMELIORATING, OR TREATING TUBERCULOSIS COMPRISING EXTRACT OF PHILADELPHUS SP. PLANT AS ACTIVE INGREDIENT” (priority 2023, published 2026).

Assays:
[1] = system: Mycobacterium tuberculosis H37Rv; assay: Intracellular M. tuberculosis CFU count in infected bone marrow-derived macrophages after treatment with extract or anti-tuberculosis agent; assay type: cell-based; settings: C57BL/6 mouse BMDM, H37Rv MOI=1, anti-tuberculosis agent 100 ng/mL, 48 hours; FIG. 2
[2] = system: Mycobacterium tuberculosis H37Rv; assay: MIC and FIC of Philadelphus tenuifolius leaf extract alone or combined with an anti-tuberculosis agent in Rv-infected BMDM; assay type: cell-based; settings: Rv-infected mouse BMDM, 48 hours; for MIC combination, RIF (antibiotic component): MIC of the antibiotic when combined with Philadelphus tenuifolius leaf extract; for MIC alone, Antibiotics: MIC = lowest concentration inhibiting more than 99% of bacterial growth

Row | SMILES | number of intracellular M. tuberculosis in mouse bone marrow-derived macrophages (CFU) vs infection control (Rv) [1] | MIC combination, RIF (antibiotic component) [2] [µg/mL] | MIC alone, Antibiotics [2] [µg/mL]
1 | CC[C@@H](CO)NCCN[C@@H](CC)CO [ethambutol] | statistically significantly reduced | 0.3 | 4
2 | CO[C@H]1/C=C/O[C@@]2(C)Oc3c(C)c(O)c4c(O)c(c(/C=N/N5CCN(C)CC5)c(O)c4c3C2=O)NC(=O)/C(C)=C\C=C\[C@H](C)[C@H](O)[C@@H](C)[C@@H](O)[C@@H](C)[C@H](OC(C)=O)[C@@H]1C [rifampicin] |  | 0.03 | 0.1
3 | NNC(=O)c1ccncc1 [isoniazid] | statistically significantly reduced | 0.03 | 0.1
